Assay results from ChEMBL document CHEMBL2429780, “Synthesis, antimicrobial and cytotoxic activity of 2-azetidinone derivatives of pyridyl benzimidazoles” (Med Chem Res, 2013).
≈ marks a conversion by molar mass, not a printed value. Calls of active or inactive are those of the source. The rule behind the calls is not given here.

How the values were obtained:
Escherichia coli [1] = assay: Antibacterial activity against Escherichia coli MTCC 443 assessed as growth inhibition at 12.5 to 1000 ug/mL after 24 hrs by broth dilution assay; type: functional, organism-based
Aspergillus niger [2] = assay: Antifungal activity against Aspergillus niger assessed as growth inhibition at 12.5 to 1000 ug/mL after 48 hrs by broth dilution assay; type: functional, organism-based
Streptococcus pyogenes [3] = assay: Antibacterial activity against Streptococcus pyogenes MTCC 442 assessed as growth inhibition at 12.5 to 1000 ug/mL after 24 hrs by broth dilution assay; type: functional, organism-based
Pseudomonas aeruginosa [4] = assay: Antibacterial activity against Pseudomonas aeruginosa MTCC 1688 assessed as growth inhibition at 12.5 to 1000 ug/mL after 24 hrs by broth dilution assay; type: functional, organism-based
Candida albicans [5] = assay: Antifungal activity against Candida albicans assessed as growth inhibition at 12.5 to 1000 ug/mL after 48 hrs by broth dilution assay; type: functional, organism-based
Aspergillus clavatus [6] = assay: Antifungal activity against Aspergillus clavatus assessed as growth inhibition at 12.5 to 1000 ug/mL after 48 hrs by broth dilution assay; type: functional, organism-based
Staphylococcus aureus [7] = assay: Antibacterial activity against Staphylococcus aureus MTCC 96 assessed as growth inhibition at 12.5 to 1000 ug/mL after 24 hrs by broth dilution assay; type: functional, organism-based
Aspergillus clavatus [8] = assay: Antifungal activity against Aspergillus clavatus assessed as growth inhibition after 48 hrs by broth dilution assay; type: functional
Staphylococcus aureus [9] = assay: Antibacterial activity against Staphylococcus aureus MTCC 96 assessed as growth inhibition after 24 hrs by broth dilution assay; type: functional; details: MTCC 96, 24 h
Streptococcus pyogenes [10] = assay: Antibacterial activity against Streptococcus pyogenes MTCC 442 assessed as growth inhibition after 24 hrs by broth dilution assay; type: functional; details: MTCC 442, 24 h
Candida albicans [11] = assay: Antifungal activity against Candida albicans assessed as growth inhibition after 48 hrs by broth dilution assay; type: functional
Pseudomonas aeruginosa [12] = assay: Antibacterial activity against Pseudomonas aeruginosa MTCC 1688 assessed as growth inhibition after 24 hrs by broth dilution assay; type: functional; details: MTCC 1688, 24 h
Aspergillus niger [13] = assay: Antifungal activity against Aspergillus niger assessed as growth inhibition after 48 hrs by broth dilution assay; type: functional
Escherichia coli [14] = assay: Antibacterial activity against Escherichia coli MTCC 443 assessed as growth inhibition after 24 hrs by broth dilution assay; type: functional; details: MTCC 443, 24 h
HeLa = assay: Cytotoxicity against human HeLa cells assessed as growth inhibition after 24 to 72 hrs by MTT assay; type: cell-based

Structure (SMILES)	MIC (Aspergillus clavatus [8])	MIC (Staphylococcus aureus [9])	MIC (Streptococcus pyogenes [10])	MIC (Candida albicans [11])	MIC (Pseudomonas aeruginosa [12])	MIC (Aspergillus niger [13])	MIC (Escherichia coli [14])	growth inhibition (GI) (Escherichia coli [1])	growth inhibition (GI) (Aspergillus niger [2])	growth inhibition (GI) (Streptococcus pyogenes [3])	growth inhibition (GI) (Pseudomonas aeruginosa [4])	growth inhibition (GI) (Candida albicans [5])	growth inhibition (GI) (Aspergillus clavatus [6])	growth inhibition (GI) (Staphylococcus aureus [7])	IC50 (HeLa)
Cc1ccccc1-c1cc(-c2nc3ccccc3[nH]2)nc(N)c1C#N	–	–	–	–	–	–	–	inactive	inactive	inactive	inactive	inactive	inactive	inactive	–
N#Cc1c(-c2cccc(Cl)c2)cc(-c2nc3ccccc3[nH]2)nc1N	≥ 1000 µg/mL	≥ 1000 µg/mL	≥ 1000 µg/mL	≥ 1000 µg/mL	≥ 1000 µg/mL	≥ 1000 µg/mL	–	–	–	–	–	–	–	–	–
N#Cc1c(-c2ccccc2Cl)cc(-c2nc3ccccc3[nH]2)nc1N	–	–	–	–	–	–	–	inactive	inactive	inactive	inactive	inactive	inactive	inactive	–
N#Cc1c(-c2ccccc2Cl)cc(-c2nc3ccccc3[nH]2)nc1N1C(=O)C(Cl)C1c1ccccc1 (stereo not drawn)	100 µg/mL (≈ 196 µM)	100 µg/mL (≈ 196 µM)	100 µg/mL (≈ 196 µM)	100 µg/mL (≈ 196 µM)	250 µg/mL (≈ 490 µM)	100 µg/mL (≈ 196 µM)	100 µg/mL (≈ 196 µM)	–	–	–	–	–	–	–	> 100 µM
O=C(N[C@H](CO)[C@H](O)c1ccc([N+](=O)[O-])cc1)C(Cl)Cl [CHLORAMPHENICOL]	–	50 µg/mL (≈ 155 µM)	50 µg/mL (≈ 155 µM)	–	50 µg/mL (≈ 155 µM)	–	50 µg/mL (≈ 155 µM)	–	–	–	–	–	–	–	–
N#Cc1c(-c2cccc([N+](=O)[O-])c2)cc(-c2nc3ccccc3[nH]2)nc1N1C(=O)C(Cl)C1c1ccccc1 (stereo not drawn)	50 µg/mL (≈ 96 µM)	25 µg/mL (≈ 48 µM)	50 µg/mL (≈ 96 µM)	50 µg/mL (≈ 96 µM)	50 µg/mL (≈ 96 µM)	50 µg/mL (≈ 96 µM)	50 µg/mL (≈ 96 µM)	–	–	–	–	–	–	–	> 100 µM
Cc1cccc(-c2cc(-c3nc4ccccc4[nH]3)nc(N3C(=O)C(Cl)C3c3ccccc3)c2C#N)c1 (stereo not drawn)	500 µg/mL (≈ 1020 µM)	250 µg/mL (≈ 510 µM)	250 µg/mL (≈ 510 µM)	500 µg/mL (≈ 1020 µM)	500 µg/mL (≈ 1020 µM)	250 µg/mL (≈ 510 µM)	500 µg/mL (≈ 1020 µM)	–	–	–	–	–	–	–	78.2 µM

Further lines, with some results ahead:

MIC (Aspergillus clavatus [8])	MIC (Staphylococcus aureus [9])	MIC (Streptococcus pyogenes [10])	MIC (Candida albicans [11])	MIC (Pseudomonas aeruginosa [12])	MIC (Aspergillus niger [13])	MIC (Escherichia coli [14])	Structure (SMILES)	growth inhibition (GI) (Escherichia coli [1])	growth inhibition (GI) (Aspergillus niger [2])	growth inhibition (GI) (Streptococcus pyogenes [3])	growth inhibition (GI) (Pseudomonas aeruginosa [4])	growth inhibition (GI) (Candida albicans [5])	growth inhibition (GI) (Aspergillus clavatus [6])	growth inhibition (GI) (Staphylococcus aureus [7])	IC50 (HeLa)
500 µg/mL (≈ 1020 µM)	500 µg/mL (≈ 1020 µM)	500 µg/mL (≈ 1020 µM)	500 µg/mL (≈ 1020 µM)	500 µg/mL (≈ 1020 µM)	500 µg/mL (≈ 1020 µM)	500 µg/mL (≈ 1020 µM)	N#Cc1c(-c2ccccc2O)cc(-c2nc3ccccc3[nH]2)nc1N1C(=O)C(Cl)C1c1ccccc1 (stereo not drawn)	–	–	–	–	–	–	–	78 µM
–	–	1000 µg/mL (≈ 2250 µM)	–	1000 µg/mL (≈ 2250 µM)	–	–	N#Cc1c(-c2ccc([N+](=O)[O-])cc2)cc(-c2nc3ccccc3[nH]2)nc1/N=C/c1ccccc1	–	–	–	–	–	–	–	–
250 µg/mL (≈ 508 µM)	250 µg/mL (≈ 508 µM)	250 µg/mL (≈ 508 µM)	500 µg/mL (≈ 1020 µM)	250 µg/mL (≈ 508 µM)	500 µg/mL (≈ 1020 µM)	250 µg/mL (≈ 508 µM)	N#Cc1c(-c2ccc(O)cc2)cc(-c2nc3ccccc3[nH]2)nc1N1C(=O)C(Cl)C1c1ccccc1 (stereo not drawn)	–	–	–	–	–	–	–	67.4 µM
500 µg/mL (≈ 1050 µM)	250 µg/mL (≈ 525 µM)	500 µg/mL (≈ 1050 µM)	500 µg/mL (≈ 1050 µM)	500 µg/mL (≈ 1050 µM)	250 µg/mL (≈ 525 µM)	250 µg/mL (≈ 525 µM)	N#Cc1c(-c2ccccc2)cc(-c2nc3ccccc3[nH]2)nc1N1C(=O)C(Cl)C1c1ccccc1 (stereo not drawn)	–	–	–	–	–	–	–	81 µM
500 µg/mL (≈ 1020 µM)	500 µg/mL (≈ 1020 µM)	500 µg/mL (≈ 1020 µM)	500 µg/mL (≈ 1020 µM)	1000 µg/mL (≈ 2040 µM)	1000 µg/mL (≈ 2040 µM)	250 µg/mL (≈ 510 µM)	Cc1ccccc1-c1cc(-c2nc3ccccc3[nH]2)nc(N2C(=O)C(Cl)C2c2ccccc2)c1C#N (stereo not drawn)	–	–	–	–	–	–	–	66 µM
–	–	1000 µg/mL (≈ 2250 µM)	–	1000 µg/mL (≈ 2250 µM)	–	–	N#Cc1c(-c2cccc([N+](=O)[O-])c2)cc(-c2nc3ccccc3[nH]2)nc1/N=C/c1ccccc1	–	inactive	–	–	inactive	inactive	–	–
250 µg/mL (≈ 508 µM)	500 µg/mL (≈ 1020 µM)	500 µg/mL (≈ 1020 µM)	250 µg/mL (≈ 508 µM)	500 µg/mL (≈ 1020 µM)	500 µg/mL (≈ 1020 µM)	500 µg/mL (≈ 1020 µM)	N#Cc1c(-c2cccc(O)c2)cc(-c2nc3ccccc3[nH]2)nc1N1C(=O)C(Cl)C1c1ccccc1 (stereo not drawn)	–	–	–	–	–	–	–	86.5 µM
–	–	1000 µg/mL (≈ 2300 µM)	–	1000 µg/mL (≈ 2300 µM)	–	–	N#Cc1c(-c2ccc(Cl)cc2)cc(-c2nc3ccccc3[nH]2)nc1/N=C/c1ccccc1	–	–	–	–	–	–	–	–
500 µg/mL (≈ 988 µM)	500 µg/mL (≈ 988 µM)	250 µg/mL (≈ 494 µM)	1000 µg/mL (≈ 1980 µM)	250 µg/mL (≈ 494 µM)	500 µg/mL (≈ 988 µM)	100 µg/mL (≈ 198 µM)	COc1ccc(-c2cc(-c3nc4ccccc4[nH]3)nc(N3C(=O)C(Cl)C3c3ccccc3)c2C#N)cc1 (stereo not drawn)	–	–	–	–	–	–	–	58.2 µM
–	≥ 1000 µg/mL	≥ 1000 µg/mL	–	≥ 1000 µg/mL	–	–	N#Cc1c(-c2ccc(Cl)cc2)cc(-c2nc3ccccc3[nH]2)nc1N	–	–	–	–	–	–	–	–
